The values that follow come from ChEMBL document CHEMBL1201862, “PubChem BioAssay data set” (2004).

The structures appear in SMILES notation. Activity calls are given as the source filed them. Bounds are passed on as bounds.

A short description of data set [1]: NIH3T3 cell viability loss – ATP luminescence, mouse fibroblasts, counter-screen, dose response (AID 2010).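 Further: cells exposed to compound for about 90 hours before reading.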 The data set is classed as functional, cell-based. In general terms: The purpose of a counterscreen is to sort out artefacts and off-target activity.
Data set [2] can be described thus: Trypanosoma cruzi growth suppression in host cells – NIH3T3 host cells, beta-gal luminescence, confirmation (AID 2044).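 Further: intracellular parasites grown in NIH/3T3 mouse fibroblasts as host cells; luminescent beta-galactosidase reporter signal from transgenic T. cruzi replicating inside host cells; inhibitors lower the luminescence signal.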 Format: functional, cell-based.
For a further data set, the target named is Cytochrome P450 2C19 (Homo sapiens, UniProt P33261). As to the kind of experiment: Cytochrome panel assay with activity outcomes. Panel member name: p450-cyp2c19 Compounds with AC50 equal or less than 10 uM are considered active. Format: functional.
Cytochrome P450 2C19, sequence (P33261 whole entry): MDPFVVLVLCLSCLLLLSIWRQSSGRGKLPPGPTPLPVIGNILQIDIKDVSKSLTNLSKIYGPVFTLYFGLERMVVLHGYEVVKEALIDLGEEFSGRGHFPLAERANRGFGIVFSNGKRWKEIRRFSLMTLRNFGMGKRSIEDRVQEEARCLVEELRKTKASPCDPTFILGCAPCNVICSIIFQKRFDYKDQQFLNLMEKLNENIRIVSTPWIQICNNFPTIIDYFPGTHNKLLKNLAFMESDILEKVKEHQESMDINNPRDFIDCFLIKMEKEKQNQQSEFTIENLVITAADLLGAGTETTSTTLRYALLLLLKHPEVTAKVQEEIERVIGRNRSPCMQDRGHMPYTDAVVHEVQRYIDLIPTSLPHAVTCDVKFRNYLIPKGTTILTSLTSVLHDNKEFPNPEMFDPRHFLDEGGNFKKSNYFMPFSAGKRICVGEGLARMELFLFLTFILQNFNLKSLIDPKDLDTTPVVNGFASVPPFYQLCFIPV
The nature of data set [3]: Luminescence Cell-Based Dose Retest to Confirm Inhibitors of Cancer Stem Cells. [Related pubchem assays (depositor defined):AID2717, AID2721]. The data set is classed as functional. The note with it: Homo sapiens.
A further data set addresses Cytochrome P450 2C9 (Homo sapiens, UniProt P11712).
In another data set the target is Cytochrome P450 2D6 (Homo sapiens, UniProt P10635).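 Further: CYP2D6 member of a cytochrome P450 panel assay.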
Cytochrome P450 2D6, sequence (P10635 whole entry): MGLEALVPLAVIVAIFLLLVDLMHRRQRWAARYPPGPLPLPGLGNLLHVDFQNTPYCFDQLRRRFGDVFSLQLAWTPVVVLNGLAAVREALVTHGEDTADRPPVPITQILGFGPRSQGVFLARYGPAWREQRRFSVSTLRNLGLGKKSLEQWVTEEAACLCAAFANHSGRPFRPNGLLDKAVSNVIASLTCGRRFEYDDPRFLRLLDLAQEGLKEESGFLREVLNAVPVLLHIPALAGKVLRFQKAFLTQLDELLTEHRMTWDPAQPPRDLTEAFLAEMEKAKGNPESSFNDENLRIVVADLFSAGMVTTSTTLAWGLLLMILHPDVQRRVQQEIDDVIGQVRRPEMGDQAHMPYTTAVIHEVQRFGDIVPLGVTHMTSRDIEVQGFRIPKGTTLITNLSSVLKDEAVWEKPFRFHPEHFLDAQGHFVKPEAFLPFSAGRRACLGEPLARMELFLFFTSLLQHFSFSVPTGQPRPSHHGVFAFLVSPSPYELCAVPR
The subject of data set [4] is Streptococcus sp. 'group A'. As to the kind of experiment: Streptococcus pyogenes SK(-)GAS viability under kanamycin – luminescence, BacTiterGlo, confirmation, counter-screen for streptokinase expression inhibitor project, dose response (AID 1900). Format: functional, organism-based.
A further data set concerns Streptococcus. Description: GAS UMAA2166 growth inhibition – luminescence, BacTiterGlo, counter-screen for streptokinase expression inhibitor project, dose response (AID 1915).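 Further: potency for reduction of bacterial viability or growth.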 Format: functional, organism-based.

Cytochrome P450 2C9, sequence (P11712 whole entry): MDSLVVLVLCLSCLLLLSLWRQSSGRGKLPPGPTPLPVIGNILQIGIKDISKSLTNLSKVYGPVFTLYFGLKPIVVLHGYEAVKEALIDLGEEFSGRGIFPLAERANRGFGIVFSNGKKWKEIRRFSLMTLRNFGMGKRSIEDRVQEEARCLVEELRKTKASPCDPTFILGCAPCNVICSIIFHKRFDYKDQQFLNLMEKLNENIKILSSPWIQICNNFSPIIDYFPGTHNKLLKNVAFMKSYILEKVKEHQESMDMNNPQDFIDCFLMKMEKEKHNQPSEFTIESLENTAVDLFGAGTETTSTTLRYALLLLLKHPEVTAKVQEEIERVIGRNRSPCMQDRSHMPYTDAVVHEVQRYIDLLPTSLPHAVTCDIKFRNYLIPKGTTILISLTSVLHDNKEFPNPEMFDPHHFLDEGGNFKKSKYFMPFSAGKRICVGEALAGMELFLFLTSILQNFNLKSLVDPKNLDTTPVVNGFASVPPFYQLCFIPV

As for `CCc1ccc(-c2cc(C(F)(F)F)n3nc(C(=O)Nc4c(C)nn(Cc5ccccc5C)c4C)cc3n2)s1`, the EC50 (in general, the concentration that produces a half-maximal response) in data set [1] is > 60 µM (inconclusive); in data set [2], 2.21 µM (active).

With `CCCc1nnc(NC(=O)CCC(=O)NCc2ccccc2OC)s1`, the AC50 (in general, the concentration at which the activity in the assay is half-maximal) at Cytochrome P450 2C19 (read-out: AC50) was 11.2 µM (inconclusive).

As to `O=C(NNc1ccccc1Br)C(=O)n1ccc2ccccc21`, the AC50 in data set [3] was 3.46 µM (active).

With `N=C(NOC(=O)COc1ccc2ccccc2c1Br)c1ccncc1`, the EC50 was > 60 µM (not active) in data set [1] and 2.84 µM (active) in data set [2].

On to `CN1CCN(NC(=O)c2cn(-c3ccccc3)nc2-c2cccc(Br)c2)CC1`, for which the EC50 in data set [1] was 4.99 µM (active); in data set [2] it was 2.81 µM (active).

In the case of `Clc1ccccc1CNCC1CCC(CNCc2ccccc2Cl)CC1` (stereo not given), on Cytochrome P450 2C9, the AC50 was 1.26 µM (inconclusive).

`CCOc1ccc(CN2CCN(Cc3cc4ccccc4[nH]3)CC2CCO)cc1` (stereo not given): the EC50 is > 60 µM (not active) in data set [1] and 0.371 µM (active) in data set [2].

Regarding `Cc1cccc(Cl)c1OCCCCn1ccnc1`, the figures for the EC50 in data set [1] and in data set [2] were > 60 µM (not active) and 1.62 µM (active), respectively.

With `OCCNc1nc(NCCC2=CCCCC2)nc(N2CCOCC2)n1`, at Cytochrome P450 2C19 (read-out: AC50), the AC50 is 15.8 µM (inconclusive).

With `CCCCCc1nnc(NC(=O)C(=O)OCC)s1`, the AC50 on Cytochrome P450 2C9 was 28.2 µM (inconclusive).

As for `Cc1ccnc(NS(=O)(=O)c2ccc(NC(=O)C3CCCNC3=O)cc2)n1` (stereo not given), the AC50 result on Cytochrome P450 2C19 is “inconclusive”.

As to `Oc1cc(O)c2c(c1)O[C@@H](c1ccc(O)c(O)c1)[C@H](O[C@@]1(c3cc(O)c(O)c(O)c3)Oc3cc(O)cc(O)c3[C@H](O)[C@@H]1O)C2`, the AC50 was 6.31 µM (inconclusive) at Cytochrome P450 2C9 and 3.98 µM (inconclusive) at Cytochrome P450 2C19 (read-out: AC50).

As for `CN(C)c1ncc2nc(CCc3ccccc3)c(=O)n(CCc3ccccc3)c2n1`, the AC50 at Cytochrome P450 2D6 is 7.94 µM (inconclusive).

On to `COc1ccc(C2NCCc3c2[nH]c2ccccc32)cc1CN1CCc2cc(OC)c(OC)cc2C1C` (stereo not given), for which the results for the EC50 in data set [1] and in data set [2] were > 60 µM (not active) and 1.98 µM (active), respectively.

As for `CC(C)C12CC[C@@]3(CC[C@H]4[C@@](C)(CCC[C@]4(C)C(=O)O)[C@@H]3C1)[C@@H](CN)C2`, the AC50 at Cytochrome P450 2C9 is 1.26 µM (inconclusive).

For the compound `Cc1noc(C)c1C(=O)N1CCC2(CCN(Cc3cc(C(F)(F)F)cc(C(F)(F)F)c3)CC2)CC1`, the AC50 at Cytochrome P450 2D6 was 39.8 µM (inconclusive).

Take `CCOC(=O)C(C(=O)NCc1ccc(C)cc1)c1ncc(C(F)(F)F)cc1Cl` (stereo not given): the AC50 on Cytochrome P450 2C19 (read-out: AC50) is 11.2 µM (inconclusive).

Turning to `Oc1[nH]c2ccccc2c1N=Nc1ccc(C(F)(F)F)cn1`, the AC50 entry on Cytochrome P450 2C19 is reported as “inconclusive”.

Turning to `CCn1nccc1C(=O)Nc1nc2ccccc2n1CCN1CCCCC1`, on Cytochrome P450 2D6, the AC50 is 4.47 µM (inconclusive).

As for `CSc1[nH]c(-c2ccc(C)cc2)nc1S(=O)(=O)c1ccccc1`, at Cytochrome P450 2C9, the AC50 is 11.2 µM (inconclusive).

As to `Cn1c(=O)n(Cc2ccc(F)cc2)c(=O)c2c1nc1n2CCCN1C1CCCCC1`, in data set [3], the AC50 is 3.33 µM (active).

`Cc1ccc(NS(=O)(=O)c2cc3c4c(cccc4c2)C(=O)NC3=O)cc1C`: the AC50 in data set [3] was 5.69 µM (active).

Consider `Cc1ccc(-c2csc(N/N=C/c3ccco3)n2)cc1`, for which, at Cytochrome P450 2C9, the AC50 was 20 µM (inconclusive).

For `CCC(=O)Nc1ccc(C(=O)OCC(=O)c2ccc(C)c([N+](=O)[O-])c2)cc1`, the AC50 is 11.2 µM (inconclusive) on Cytochrome P450 2C19 (read-out: AC50) and 35.5 µM (inconclusive) on Cytochrome P450 2D6.

Regarding `O=c1c2ccccc2nc(/C=C/c2ccccc2F)n1-c1ccccc1O`, in data set [3], the AC50 is 2.4 µM (active).

Regarding `O=c1c(-c2cccs2)nc2cnc(N3CCNCC3)nc2n1-c1ccccc1`, the AC50 at Cytochrome P450 2C9 and on Cytochrome P450 2D6 was 20 µM (inconclusive) each time.

With `CCOc1ccc(CSC2=NCCN2)cc1Cl`, the EC50 in data set [1] is > 60 µM (not active); in data set [2], 1.1 µM (active).

In the case of `COc1ccccc1C(=O)Nc1ccnn1C1CCN(Cc2cnc(N(C)C)s2)CC1`, the figures for the EC50 in data set [1] and in data set [2] were > 60 µM (not active) and 0.852 µM (active), respectively.

As for `COc1cccc(CC2(CO)CCCN(Cc3ccc(C)s3)C2)c1` (stereo not given), the EC50 in data set [1] is > 30 µM (not active); in data set [2], 0.635 µM (active).

Turning to `CC(C)c1c(CN(C)[C@@H](C)Cc2ccccc2)n(C)n(-c2ccccc2)c1=O` [FAMPROFAZONE], the AC50 on Cytochrome P450 2C19 (read-out: AC50) is 15.8 µM (inconclusive); at Cytochrome P450 2D6 it was 10 µM (inconclusive).

For the compound `Nc1nnc(SCC(=O)OCC(=O)NC2CCCCC2)s1`, the AC50 in data set [3] was > 195 µM (inactive).

For `COc1ccccc1-c1cc(NCc2cccnc2)ncn1`, at Cytochrome P450 2D6, the AC50 is 20 µM (inconclusive).

Regarding `O=C(CSc1ccc(Cl)cc1)Nc1cccc(NC(=O)c2ccco2)c1`, on Cytochrome P450 2C9, the AC50 was 5.01 µM (inconclusive).

As to `O[C@@H](c1cc([C@@]23C[C@H]4CC[C@@H]2C[C@H](C4)C3)nc2c(Cl)cc(Cl)cc12)[C@@H]1CCCCN1`, the AC50 on Cytochrome P450 2C19 (read-out: AC50) was 0.794 µM (inconclusive); at Cytochrome P450 2D6 it was 3.16 µM (inconclusive).

In the case of `COc1ccc(N2CCN(c3nc(Nc4ccc(C)c(F)c4)nc(N4CCCC4)n3)CC2)cc1`, the EC50 in data set [1] is > 60 µM (not active); in data set [2], 3.17 µM (active).

Regarding `C[C@@H](C(=O)Nc1ccc2ccccc2c1)[C@@H]1C[C@@]1(C)[C@@H](NC(=O)c1ccncc1Cl)c1ccccc1`, the AC50 at Cytochrome P450 2C9 was 39.8 µM (inconclusive).

As for `CCc1nc2c(c(SC)nn2-c2ccccc2)c(N)c1C(=O)OC`, the AC50 on Cytochrome P450 2C9 was 1.12 µM (inconclusive); at Cytochrome P450 2C19 (read-out: AC50), 25.1 µM (inconclusive).

Take `C[C@@]12CCC=C[C@H]1[C@H](c1ccc(F)c(/C=C/c3ccccc3)c1)N(Cc1ccccc1)C2=O`: in data set [3], the AC50 is 2.84 µM (active).

On to `CC(=O)OC[C@@H]1O[C@@H](O/N=C2/C[C@@H](O)[C@@H](O)[C@@H]3[C@@H]4C(=O)N(C[C@@H]5CCCO5)C(=O)[C@H]4CC[C@@H]23)[C@H](OC(C)=O)[C@H](OC(C)=O)[C@@H]1OC(C)=O`, for which, on Cytochrome P450 2D6, the concentration at half-maximal activity (AC50) was 3.98 µM (inconclusive).

With `COc1ccc(/C(C)=N/NC(=O)c2ccc(CSc3cccc4cccnc34)cc2)cc1OC`, on Cytochrome P450 2C9, the AC50 is 1.26 µM (inconclusive).

For `COc1cc(-c2ccc3c(=O)c4ccccc4n(C)c3c2)cc(OC)c1OC`, in data set [3], the AC50 was 9.62 µM (active).

With `CC1CC2=C(N=C(S)NC2c2cccc(F)c2)/C(=C/c2cccc(F)c2)C1` (stereo not given), the EC50 in data set [1] was > 60 µM (inconclusive); in data set [2] it was 1.83 µM (active).

In the case of `Cc1ccc(CCN2CC(C(=O)NC3CCCC3)CC2=O)cc1` (stereo not given), the AC50 on Cytochrome P450 2C19 (read-out: AC50) was 14.1 µM (inconclusive).

Regarding `O=S(=O)(NCC(c1cccnc1)N1CCN(Cc2ccccc2)CC1)c1cc(F)ccc1F` (stereo not given), the concentration giving a half-maximal response (EC50) was > 60 µM (not active) in data set [1] and 0.677 µM (active) in data set [2].

For the compound `COc1ccccc1CNc1nc(-c2cccc(C#N)c2)nc2ccccc12`, the AC50 at Cytochrome P450 2C9 was 1 µM (inconclusive).

With `CCOc1cc(CNCCCN2CCOCC2)ccc1OCC(=O)NC(C)(C)C`, the concentration for a half-maximal effect (EC50) was > 60 µM (not active) in data set [1] and 0.87 µM (active) in data set [2].

As to `CC(=O)c1ccc(-c2ccc([C@H]3[C@H]4C=CC[C@@H](C)[C@@H]4C(=O)N3Cc3ccccc3)c(F)c2)cc1`, the AC50 in data set [3] is 5.57 µM (active).

In the case of `Cc1noc(C)c1C(=O)N1CCC[C@@]2(CCN(c3ccccn3)C2)C1`, the AC50 at Cytochrome P450 2D6 was 6.31 µM (inconclusive).

In the case of `COc1cc2nc(N3CCN(C(=O)OCc4ccccc4)[C@H](C(=O)NC(C)(C)C)C3)nc(N)c2cc1OC` [L-765314], the AC50 at Cytochrome P450 2D6 is 31.6 µM (inconclusive).

On to `CC(NC(=O)CN=C(S)N(Cc1ccccc1)Cc1cccnc1)c1ccccc1` (stereo not given), for which the concentration for a half-maximal effect (EC50) was 10.8 µM (active) in data set [1] and 0.805 µM (active) in data set [2].

For the compound `CCOc1ccc(-n2cc(-c3ccccc3)c3c(S)ncnc32)cc1`, the EC50 in data set [4] is 6.95 µM (active); in the data set on Streptococcus, 14.9 µM (active).

With `COc1ccccc1CCn1c(=O)c(-c2cccc(F)c2)nc2cncnc21`, the half-maximal activity concentration (AC50) on Cytochrome P450 2D6 is 39.8 µM (inconclusive).

Consider `COc1cccc2c1C(=N)c1c(O)c3c(c(O)c1C2=O)C[C@](O)(C(C)=O)C[C@@H]3O[C@H]1C[C@H](N)[C@@H](O)[C@H](C)O1`, for which the AC50 at Cytochrome P450 2D6 was 3.16 µM (inconclusive).

With `FC(F)(F)c1ccc(CNCCc2ccc3c(c2)OCO3)cc1`, the values for the EC50 in data set [1] and in data set [2] were > 60 µM (not active) and 0.308 µM (active), respectively.

For `O=C(CSc1nnc(-c2ccccn2)n1Cc1ccco1)Nc1ccc2c(c1)OCO2`, the AC50 on Cytochrome P450 2C9 was 15.8 µM (inconclusive).

Turning to `Cc1[nH]n(-c2ccccc2)c(=O)c1/C=N/NC(=O)c1ccccc1F`, the EC50 was 3.54 µM (active) in data set [4] and 6.72 µM (active) in the data set with Streptococcus.

As for `CCOc1cc(/C=C\c2nc(O)nc(O)c2[N+](=O)[O-])ccc1OC(C)CC` (stereo not given), the AC50 in data set [3] was 8.11 µM (active).

For `Cn1c(Sc2ccc(-c3cccnc3)n2C)ccc1-c1cccnc1`, the AC50 on Cytochrome P450 2C9 is 3.98 µM (inconclusive); on Cytochrome P450 2D6, 3.16 µM (inconclusive).

As for `Cc1cc(N)c2ccccc2[n+]1CCCCCCCCCCCCCC[n+]1c(C)cc(N)c2ccccc21`, the AC50 at Cytochrome P450 2C9 was 39.8 µM (inconclusive); on Cytochrome P450 2C19 (read-out: AC50), 31.6 µM (inconclusive).

Regarding `C[C@@H]1C[C@H](OC(=O)[C@@H](O)c2ccccc2)CC(C)(C)N1C`, on Cytochrome P450 2D6, the AC50 was 15.8 µM (inconclusive).
